# How the values were obtained:
# [1] = biological target: T1, HDAC6-HiBiT (endogenously tagged HDAC6 in HeLa HDAC6-HiBiT LgBiT cells) (Homo sapiens, UniProt Q9UBN7); test: NanoBRET competition with tracer […]; assay type: cell-based
# T1 sequence (Q9UBN7 1-1215): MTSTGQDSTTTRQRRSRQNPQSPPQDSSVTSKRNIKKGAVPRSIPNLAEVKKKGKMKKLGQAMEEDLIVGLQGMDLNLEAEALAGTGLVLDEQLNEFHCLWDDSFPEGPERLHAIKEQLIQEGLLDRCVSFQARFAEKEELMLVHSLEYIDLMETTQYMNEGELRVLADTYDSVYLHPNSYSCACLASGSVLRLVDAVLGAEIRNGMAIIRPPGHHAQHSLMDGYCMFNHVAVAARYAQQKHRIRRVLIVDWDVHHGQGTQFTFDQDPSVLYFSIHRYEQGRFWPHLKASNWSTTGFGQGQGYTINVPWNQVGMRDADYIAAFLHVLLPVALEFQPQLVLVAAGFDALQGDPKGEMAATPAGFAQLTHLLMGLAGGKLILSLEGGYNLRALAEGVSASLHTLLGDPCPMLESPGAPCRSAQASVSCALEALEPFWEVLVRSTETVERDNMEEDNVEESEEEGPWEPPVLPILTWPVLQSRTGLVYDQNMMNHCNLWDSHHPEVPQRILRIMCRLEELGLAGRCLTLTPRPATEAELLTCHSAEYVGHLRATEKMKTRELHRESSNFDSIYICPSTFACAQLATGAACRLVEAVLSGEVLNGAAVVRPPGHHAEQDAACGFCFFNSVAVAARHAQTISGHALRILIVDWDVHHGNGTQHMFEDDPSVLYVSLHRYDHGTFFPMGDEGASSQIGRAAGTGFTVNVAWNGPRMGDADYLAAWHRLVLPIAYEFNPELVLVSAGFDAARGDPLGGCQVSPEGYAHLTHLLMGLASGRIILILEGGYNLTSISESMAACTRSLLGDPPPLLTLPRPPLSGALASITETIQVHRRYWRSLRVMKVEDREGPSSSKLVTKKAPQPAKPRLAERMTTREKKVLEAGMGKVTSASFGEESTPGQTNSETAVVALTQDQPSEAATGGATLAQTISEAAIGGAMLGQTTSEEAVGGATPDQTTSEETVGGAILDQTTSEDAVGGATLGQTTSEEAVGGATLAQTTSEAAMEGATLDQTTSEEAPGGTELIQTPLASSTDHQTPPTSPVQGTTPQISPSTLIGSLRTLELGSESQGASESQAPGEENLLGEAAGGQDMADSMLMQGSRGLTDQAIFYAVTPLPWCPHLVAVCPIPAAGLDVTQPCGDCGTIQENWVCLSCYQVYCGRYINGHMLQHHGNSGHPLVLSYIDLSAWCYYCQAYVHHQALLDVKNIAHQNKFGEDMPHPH
# [2] = biological target: T1, HDAC6-HiBiT (endogenously tagged HDAC6 in HeLa HDAC6-HiBiT LgBiT cells); test: NanoBRET saturation binding; assay type: cell-based
# [3] = biological target: T2, HDAC6 (human recombinant) (Homo sapiens, UniProt Q9UBN7); test: fluorogenic HDAC assay (ZMAL substrate, trypsin-coupled); assay type: biochemical
# T2 sequence (Q9UBN7 1-1215): T1 sequence (Q9UBN7 1-1215)
# Description: fluorogenic HDAC assay (ZMAL substrate, trypsin-coupled) on HDAC6 (human recombinant)
# [4] = biological target: HDAC1 (human recombinant) (Homo sapiens, UniProt Q13547); test: as above; assay type: biochemical
# Description: fluorogenic HDAC assay (ZMAL substrate, trypsin-coupled) on HDAC1 (human recombinant)
# [5] = biological target: HDAC2 (human recombinant) (Homo sapiens, UniProt Q92769); test: as above; assay type: biochemical
# Description: fluorogenic HDAC assay (ZMAL substrate, trypsin-coupled) on HDAC2 (human recombinant)
# Chain of HDAC1 (human recombinant) (Q13547 whole entry): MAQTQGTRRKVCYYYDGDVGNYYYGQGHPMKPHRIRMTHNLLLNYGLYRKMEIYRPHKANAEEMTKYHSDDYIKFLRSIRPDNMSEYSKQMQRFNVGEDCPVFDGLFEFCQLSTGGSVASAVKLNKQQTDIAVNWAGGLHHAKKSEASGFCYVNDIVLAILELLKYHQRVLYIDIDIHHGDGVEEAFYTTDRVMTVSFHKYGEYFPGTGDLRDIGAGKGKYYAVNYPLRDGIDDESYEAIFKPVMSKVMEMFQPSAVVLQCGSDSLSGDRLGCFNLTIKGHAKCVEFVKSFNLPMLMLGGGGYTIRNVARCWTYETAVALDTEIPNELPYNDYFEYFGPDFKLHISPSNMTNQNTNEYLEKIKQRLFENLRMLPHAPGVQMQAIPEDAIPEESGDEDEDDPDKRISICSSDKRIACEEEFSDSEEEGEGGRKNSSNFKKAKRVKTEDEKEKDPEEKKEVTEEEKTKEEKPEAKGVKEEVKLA
# Chain of HDAC2 (human recombinant) (Q92769 whole entry): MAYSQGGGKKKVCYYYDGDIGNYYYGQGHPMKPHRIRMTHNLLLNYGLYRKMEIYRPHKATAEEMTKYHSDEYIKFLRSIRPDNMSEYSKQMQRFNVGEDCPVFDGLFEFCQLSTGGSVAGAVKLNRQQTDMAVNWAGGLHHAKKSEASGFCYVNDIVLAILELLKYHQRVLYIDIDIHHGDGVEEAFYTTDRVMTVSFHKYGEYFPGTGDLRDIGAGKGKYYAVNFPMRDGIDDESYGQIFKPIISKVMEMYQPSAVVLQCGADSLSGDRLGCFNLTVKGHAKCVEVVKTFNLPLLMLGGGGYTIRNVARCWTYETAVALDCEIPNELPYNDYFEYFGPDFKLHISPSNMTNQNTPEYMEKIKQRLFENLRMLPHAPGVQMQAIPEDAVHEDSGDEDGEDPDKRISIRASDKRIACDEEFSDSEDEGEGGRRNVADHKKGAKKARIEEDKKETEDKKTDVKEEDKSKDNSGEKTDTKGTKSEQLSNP
Structure (SMILES),IC50 [1] [nM],Kd [2] [nM],IC50 [3] [nM],IC50 [4] [nM],IC50 [5] [nM]
FC(F)c1nnc(-c2cnc(NCc3ccccc3)nc2)o1 [BK1],75 ± 30,,,,
"CN(C)c1ccc2c(-c3ccc(C(=O)NCCOCCOCCOCCn4cc(COc5ccc(C(=O)NCCCCCCC(=O)NO)cc5)nn4)cc3C(=O)[O-])c3ccc(N(C)C)cc3[o+]c2c1 [compound 4, tracer 4]",,120 ± 40,18 ± 1,200 ± 20,340 ± 40
"CN(C)c1ccc2c(-c3ccc(C(=O)NCCCn4cc(COc5ccc(C(=O)NCCCCCCC(=O)NO)cc5)nn4)cc3C(=O)[O-])c3ccc(=[N+](C)C)cc-3oc2c1 [compound 5, 2-[6-(Dimethylamino)-3-(dimethyliminio)-3H-xanthen-9-yl]-5-[(3-{4-[(4-{[7-(hydroxyamino)-7-oxoheptyl]carbamoyl}phenoxy)methyl]-1H-1,2,3-triazol-1-yl}propyl)carbamoyl]benzoate]",,80 ± 11,9.1 ± 0.1,130 ± 20,220 ± 10

# — paper doi:10.1101/2025.03.31.646177v2, “Target engagement studies and kinetic live-cell degradation assays enable the systematic characterization of HDAC6 PROTACs” (biorxiv, 2025)
